The values that follow are results of earlier work, collected in patent US8481060B2, “Melt-coated pharmaceutical composition with fast release” (Losan Pharma GmbH, priority 2008, dated 2013).

The conditions of the data set: taste-masking compound (excipient).

For `CCCCCCCCCCCCCCCCCC(=O)O` [stearic acid], the HLB was −6.

With `CCCCCCCCCCCCCCCCCCCC(=O)O` [arachinic acid], the HLB is recorded as −7.

Turning to `CCCCCCCCCCCCCCCCCCCCCC(=O)O` [behenic acid], the HLB is on record as −8.

In the case of `CCCCCCCCCCCCCCCCC(=O)O` [margaric acid], the HLB is listed as −6.

Consider `CCCCCCCCCCCCCCCCCCC(=O)O` [nonadecane acid], for which the HLB is on record as −6.

On to `CCCCCCCCCCCCCCCC(=O)O` [palmitinic acid], for which the HLB was −5.
